In patent publication US20230017045A1, “PYRIDINE AND PYRIMIDINE CARBOXYLATE HERBICIDES AND METHODS OF USE THEREOF” (Dow AgroSciences LLC, priority 2017, published 2023):
Where two headings read alike, the source gives them in different places.

Tested on: test plant species
Assay: Post-emergent herbicidal activity test (greenhouse, foliar spray, visual growth reduction)
Format: in vivo
Conditions: post-emergence, 336 h, 140 g ai/ha
Method in brief: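 Visual scoring 14 d after treatment (0 = no injury, 100 = complete control) against nontreated and solvent-blank plants gave percent growth reduction. Foliar application used a track sprayer delivering 187 L/ha to seedlings at first or second true leaf stage, grown at 23–29 °C day, ~15 h photoperiod.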

[1] = ALOMY: blackgrass (Alopecurus myosuroides), 14 days after application, read-out: Visual Growth Reduction (%) 14 Days After Application, ALOMY
[2] = AMARE: redroot pigweed (Amaranthus retroflexus), 14 days after application, read-out: Visual Growth Reduction (%) 14 Days After Application, AMARE
[3] = AVEFA: wild oat (Avena fatua), 14 days after application, read-out: Visual Growth Reduction (%) 14 Days After Application, AVEFA
[4] = CHEAL: lambsquarters (Chenopodium album), 14 days after application, read-out: Visual Growth Reduction (%) 14 Days After Application, CHEAL
[5] = CIRAR: canada thistle (Cirsium arvense), 14 days after application, read-out: Visual Growth Reduction (%) 14 Days After Application, CIRAR
[6] = CYPES: yellow nutsedge (Cyperus esculentus), 14 days after application, read-out: Visual Growth Reduction (%) 14 Days After Application, CYPES
[7] = DIGSA: crabgrass (Digitaria sanguinalis), 14 days after application, read-out: Visual Growth Reduction (%) 14 Days After Application, DIGSA
[8] = ECHCG: barnyardgrass (Echinochloa crus-galli), 14 days after application, read-out: Visual Growth Reduction (%) 14 Days After Application, ECHCG
[9] = IPOHE: ivy-leaf morning glory (Ipomoea hederacea), 14 days after application, read-out: Visual Growth Reduction (%) 14 Days After Application, IPOHE
[10] = KCHSC: kochia (Bassia scoparia), 14 days after application, read-out: Visual Growth Reduction (%) 14 Days After Application, KCHSC
[11] = ORYSA: rice (Oryza sativa), 14 days after application, read-out: Visual Growth Reduction (%) 14 Days After Application, ORYSA
[12] = SETFA: giant foxtail (Setaria faberi), 14 days after application, read-out: Visual Growth Reduction (%) 14 Days After Application, SETFA
[13] = SORVU: grain sorghum (Sorghum vulgare), 14 days after application, read-out: Visual Growth Reduction (%) 14 Days After Application, SORVU
[14] = STEME: common chickweed (Stellaria media), 14 days after application, read-out: Visual Growth Reduction (%) 14 Days After Application, STEME
[15] = TRZAS: wheat, spring (Triticum aestivum), 14 days after application, read-out: Visual Growth Reduction (%) 14 Days After Application, TRZAS
[16] = blackgrass (Alopecurus myosuroides), 14 Days After Application, read-out: Visual Growth Reduction (%) ALOMY
[17] = canada thistle (Cirsium arvense), 14 Days After Application, read-out: Visual Growth Reduction (%) CIRAR
[18] = crabgrass (Digitaria sanguinalis), 14 Days After Application, read-out: Visual Growth Reduction (%) DIGSA
[19] = lambsquarters (Chenopodium album), 14 Days After Application, read-out: Visual Growth Reduction (%) CHEAL
[20] = redroot pigweed (Amaranthus retroflexus), 14 Days After Application, read-out: Visual Growth Reduction (%) AMARE
[21] = wild oat (Avena fatua), 14 Days After Application, read-out: Visual Growth Reduction (%) AVEFA
[22] = yellow nutsedge (Cyperus esculentus), 14 Days After Application, read-out: Visual Growth Reduction (%) CYPES

Row | SMILES | pest or weed control at 140 g/ha [1] [%] | pest or weed control at 140 g/ha [2] [%] | pest or weed control at 140 g/ha [3] [%] | pest or weed control at 140 g/ha [4] [%] | pest or weed control at 140 g/ha [5] [%] | pest or weed control at 140 g/ha [6] [%] | pest or weed control at 140 g/ha [7] [%] | pest or weed control at 140 g/ha [8] [%] | pest or weed control at 140 g/ha [9] [%] | pest or weed control at 140 g/ha [10] [%] | pest or weed control at 140 g/ha [11] [%] | pest or weed control at 140 g/ha [12] [%] | pest or weed control at 140 g/ha [13] [%] | pest or weed control at 140 g/ha [14] [%] | pest or weed control at 140 g/ha [15] [%] | pest or weed control at 140 g/ha [16] [%] | pest or weed control at 140 g/ha [17] [%] | pest or weed control at 140 g/ha [18] [%] | pest or weed control at 140 g/ha [19] [%] | pest or weed control at 140 g/ha [20] [%] | other results
1 | O=C(O)c1nc(-c2ncc(Cl)c(C(F)F)c2Cl)ccc1Cl [F193, 3′,5,5′-Trichloro-4′-(difluoromethyl)-[2,2′-bipyridine]-6-carboxylic acid] | 0 to 29 | 95 to 100 | 30 to 44 | 85 to 94 | 0 to 29 | 0 to 29 | 85 to 94 | 85 to 94 | 95 to 100 | 0 to 29 | 0 to 29 | 75 to 84 | 95 to 100 | 0 to 29 | 0 to 29 |  |  |  |  |  | 
2 | COC(=O)c1nc(-c2ccc3c(c2OC)OC(F)(F)O3)ccc1Cl [F369, Methyl 3-chloro-6-(2,2-difluoro-4-methoxybenzo[d][1,3]dioxol-5-yl)picolinate] |  |  |  |  |  |  |  | 45 to 59 | 95 to 100 | 30 to 44 | 0 to 29 | 60 to 74 | 85 to 94 | 0 to 29 | 60 to 74 | 30 to 44 | 85 to 94 | 85 to 94 | 30 to 44 | 60 to 74 | pest or weed control at 140 g/ha [21]: 30 to 44%; pest or weed control at 140 g/ha [22]: 0 to 29%
3 | COC(=O)c1nc(-c2cc(C)c(Cl)cc2Cl)ccc1Cl [F51, Methyl 3-chloro-6-(2,4-dichloro-5-methylphenyl) picolinate] | 0 to 29 | 45 to 59 | 0 to 29 | 45 to 59 | 0 to 29 | 0 to 29 | 0 to 29 | 0 to 29 |  | 0 to 29 | 0 to 29 | 0 to 29 | 0 to 29 | 0 to 29 | 0 to 29 |  |  |  |  |  | 
4 | COC(=O)c1nc(-c2ccc(C(F)(F)F)cc2C#N)ccc1Cl [F24, Methyl 3-chloro-6-(2-cyano-4-(trifluoromethyl)phenyl) picolinate] | 0 to 29 | 85 to 94 | 0 to 29 | 95 to 100 | 95 to 100 | 0 to 29 | 85 to 94 | 85 to 94 | 95 to 100 | 60 to 74 | 0 to 29 | 45 to 59 | 85 to 94 | 0 to 29 | 0 to 29 |  |  |  |  |  | 
5 | COC(=O)c1nc(-c2ccc(Cl)cc2F)ccc1Cl [F270, Methyl 3-chloro-6-(4-chloro-2-fluorophenyl) picolinate] |  |  |  |  |  |  |  | 0 to 29 | 95 to 100 | 75 to 84 | 0 to 29 | 0 to 29 | 85 to 94 | 30 to 44 | 45 to 59 | 0 to 29 | 75 to 84 | 85 to 94 | 85 to 94 | 45 to 59 | pest or weed control at 140 g/ha [21]: 0 to 29%; pest or weed control at 140 g/ha [22]: 45 to 59%
